Test results published in patent US20240368668A1, “SUBSTRATES AND BIOMARKERS OF ADAMTS7” (The Broad Institute, Inc., priority 2021, published 2024).
Square brackets hold non-standard residues; d marks the D form. Ends that are not written are not given here. Met(O) = CS(=O)CC[C@H](N)C(=O)O

What was measured:
mouse ADAMTS7 [1] = test: TMT10 TAILS N-terminomics, SMC2 experiment (process replicates, trypsin/AspN digest); format: cell-based
Method in brief: (§1)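 Full-length mouse ADAMTS7 (WT or E373Q mutant, C-terminal 3xFLAG) or luciferase was transduced via adenovirus, 50 MOI, into HCA-SMC (SMC1, SMC2) or HUVEC. SMC1: pooled media, technical triplicates 400 ug; SMC2: process triplicates 300 ug; HUVEC: process triplicates 200 ug, bFGF2 10 ng/ml.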

mouse ADAMTS7 [2] = test: TMT10 TAILS N-terminomics, HUVEC experiment (process replicates, trypsin/AspN digest); format: cell-based, human; details: HUVEC TAILS HC; log fold change of N-terminal peptide, Ad-mADAMTS7 WT over EQ
Method in brief: as §1

[3] = SMC2_TAILS HC, log fold change, mWT over mEQ
[4] = SMC2_TAILS HC, log fold change of N-terminal peptide, Ad-mADAMTS7 WT over EQ
[5] = log fold change, ADAMTS7 WT over EQ

Substance	logFC.mWT.over.mEQ (mouse ADAMTS7 [2])	logFC.mWT.over.mEQ (mouse ADAMTS7 [1]; [4])	further results
COL1A2_80 (QYDGKGVGLGPGPMGLMGPR; listed as Homo sapiens)	–	–	logFC.mWT.over.mEQ (mouse ADAMTS7 [1]; [3]): 1.15
COL1A2_270 (VGNAGPAGPAGPR; listed as Homo sapiens)	–	–	logFC.mWT.over.mEQ (mouse ADAMTS7 [1]; [3]): 3.47
COL1A2_305 (LTGAKGAAGLPGVAGAPGLPGPR; listed as Homo sapiens)	–	–	logFC.mWT.over.mEQ (mouse ADAMTS7 [1]; [3]): 1.92
COL1A2_630 (VGTAGPSGPSGLPGER; listed as Homo sapiens)	–	–	logFC.mWT.over.mEQ (mouse ADAMTS7 [1]; [3]): 2.33
COL1A2_866 (LLGAPGILGLPGSR; listed as Homo sapiens)	–	–	logFC.mWT.over.mEQ (mouse ADAMTS7 [1]; [3]): 3.22
COL1A2_960 (AGAPGPHGPVGPAGKHGNR; listed as Homo sapiens)	–	–	logFC.mWT.over.mEQ (mouse ADAMTS7 [1]; [3]): 2.87
COL1A2_1028 (LQGLPGIAGHHGDQGAPGSVGPAGPR; listed as Homo sapiens)	–	–	logFC.mWT.over.mEQ (mouse ADAMTS7 [1]; [3]): 1.98
COL4A2_71 (YNGPPGLQGFPGLQGR; listed as Homo sapiens)	–	–	logFC.mWT.over.mEQ (mouse ADAMTS7 [1]; [3]): 1.70
COL18A1_1505 (LQPPVVQLHDSNPYPR; listed as Homo sapiens)	3.88	–	logFC.mWT.over.mEQ (mouse ADAMTS7 [1]; [3]): 1.47
LOXL1_218 (AVASAGVIYPYQPR; listed as Homo sapiens)	–	1.83	–
LOXL2_45 (HQPQAPANVAKIQLR; listed as Homo sapiens)	–	2.51	–
LTBP2_79 (VAGLQPVER; listed as Homo sapiens)	1.51	1.62	–
LTBP2_250 (SAAGEGTLAR; listed as Homo sapiens)	1.71	2.70	–
LTBP2_290 (QHVGLSR; listed as Homo sapiens)	–	3.05	–
LTBP2_502 (LVENSVETRPPPWLPASPGHSLW; listed as Homo sapiens)	2.68	2.85	–
LTBP3_103 (LTGSGFR; listed as Homo sapiens)	–	5.72	–
LTBP3_208 (FLVPLGPGQISA; listed as Homo sapiens)	2.14	1.53	–
MAP4_815 (AVASTGPSSR; listed as Homo sapiens)	2.51	1.70	–
MAP4_816 (VASTGPSSR; listed as Homo sapiens)	2.05	2.51	–
MMP1_100 (FVLTEGNPR; listed as Homo sapiens)	–	2.39	–
MMP1_185 (FQPGPGIGG; listed as Homo sapiens)	–	1.46	–
NBEA_1892 (LEKVAPLLR; listed as Homo sapiens)	–	2.12	–
NID1_360 (FHQQHPQVI; listed as Homo sapiens)	1.78	2.69	–

Substance	logFC.mWT.over.mEQ (mouse ADAMTS7 [2])	logFC.mWT.over.mEQ (mouse ADAMTS7 [1]; [4])	further results
NID2_291 (HSSVPLGR; listed as Homo sapiens)	2.90	3.16	–
NID2_951 (YAYPGAR; listed as Homo sapiens)	–	2.80	–
NUCB1_317 (FLASTQR; listed as Homo sapiens)	2.65	–	–
NUCB1_389 (LQQAVLHMEQR; listed as Homo sapiens)	1.54	–	–
PAK4_141 (HSEAGGGSG; listed as Homo sapiens)	–	1.78	–
PLIN3_75 (VSGAQPILSKL; listed as Homo sapiens)	–	2.25	–
POSTN_727 (IITGPEIKYTR; listed as Homo sapiens)	–	2.60	–
PPP1R18_295 (LSETLTR; listed as Homo sapiens)	–	2.32	–
PTPRF_1859 (MRYEGVVDMFQTVKTLR; listed as Homo sapiens)	–	2.59	–
QSOX1_210 (HKGVAVR; listed as Homo sapiens)	–	1.69	–
SERBP1_56 (QAAAQTNSNAAGKQLR; listed as Homo sapiens)	1.43	–	logFC.mWT.over.mEQ (mouse ADAMTS7 [1]; [5]): 4.06
SHC2_267 (VAKDPINQRACHIL; listed as Homo sapiens)	–	1.85	–
SPOCK1_27 (LAGGAGPNHGNFL; listed as Homo sapiens)	1.07	2.69	–
SRGN_59 (LLPGESNKIPR; listed as Homo sapiens)	1.17	3.66	logFC.mWT.over.mEQ (mouse ADAMTS7 [1]; [5]): 4.33
THBS2_290 (LSENLKR; listed as Homo sapiens)	4.41	–	logFC.mWT.over.mEQ (mouse ADAMTS7 [1]; [5]): 4.05
TNPO2_744 (VQ[Met(O)]VLNNLVEII[code n]RP[code n]TPKTLLE; listed as Homo sapiens)	–	4.02	–
TNS1_236 (QEGLAGYQR; listed as Homo sapiens)	–	2.08	–
TRGC2_86 (HRCIVRHENNK; listed as Homo sapiens)	–	2.93	–
TTN_5975 (VKEPPVEFTKPL; listed as Homo sapiens)	–	3.34	–
VAT1_42 (AASPPLLR; listed as Homo sapiens)	–	2.95	–
VIM_314 (QESTEYR; listed as Homo sapiens)	–	3.28	logFC.mWT.over.mEQ (mouse ADAMTS7 [1]; [5]): 2.60
VIM_333 (LKGTNESLER; listed as Homo sapiens)	–	3.84	logFC.mWT.over.mEQ (mouse ADAMTS7 [1]; [5]): 4.39
